Laboratory results: patent US20200024278A1, “COMPOSITION COMPRISING ANTIBIOTIC COMPOUND AND AN HETEROCYCLIC COMPOUND AND THEIR USE IN PREVENTING OR TREATING BACTERIAL INFECTIONS” (MUTABILIS, priority 2016, published 2020)

Assays:
Test in all cases: MIC, broth microdilution (CLSI), substance alone or ATB combined with compound at 4 or 8 μg/mL
[1] = tested on: PAE 105250; type: cell-based, P. aeruginosa; settings: PAE 105250
Summary of the method: (§1)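 Broth microdilution; ca-MHB; 5·10^5 CFU/mL; 35° C, 16-20 h; compound alone or fixed 4/8 μg/mL with antibiotic series; endpoint = no visible growth.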

[2] = tested on: PAE UFR90; type: cell-based, P. aeruginosa; settings: PAE UFR90
Summary of the method: as §1

[3] = tested on: PAE UFR48; type: cell-based, P. aeruginosa; settings: PAE UFR48
Summary of the method: as §1

[4] = tested on: ECO UFR39; type: cell-based, E. coli; settings: ECO UFR39
Summary of the method: as §1

[5] = tested on: ECO 190317; type: cell-based, E. coli; settings: ECO 190317
Summary of the method: as §1

[6] = tested on: SAU 29213; type: cell-based, S. aureus; settings: SAU 29213
Summary of the method: as §1

MIC ATB alone ([1]; antibiotic alone): 8 µg/mL
MIC ATB combined with Example 1 @8 μg/ml ([1]; with Example 1 @8 μg/ml): 0.5 µg/mL
MIC ATB combined with Example 1 @8 μg/ml ([1]; with Example 1 at 8 μg/ml): 0.5 µg/mL
MIC ATB combined with Example 7 @8 μgml ([1]; with Example 7 at 8 μg/ml): 32 µg/mL
MIC ATB combined with Example 9 @4 μg/ml ([1]; with Example 9 @4 μg/ml): 8 µg/mL
MIC ATB combined with Example 9 @4 μg/ml ([1]; with Example 9 at 4 μg/ml): 8 µg/mL
MIC ATB combined with Example 11 @8 μg/ml ([1]; with Example 11 at 8 μg/ml): 8 µg/mL
MIC ATB combined with Example 12 @8 μg/ml ([1]; with Example 12 at 8 μg/ml): 8 µg/mL
MIC ATB combined with Example 13 @8 μg/ml ([1]; with Example 13 at 8 μg/ml): 8 µg/mL
MIC ATB combined with Example 14 @8 μg/ml ([1]; with Example 14 at 8 μg/ml): 8 µg/mL
MIC ATB combined with Example 15 @4 μgml ([1]; with Example 15 at 4 μg/ml): 8 µg/mL
MIC ATB combined with Example 16 @4 μg/ml ([1]; with Example 16 at 4 μg/ml): 8 µg/mL
MIC ATB alone ([2]; antibiotic alone): 16 µg/mL
MIC ATB combined with Example 1 @8 μg/ml ([2]; with Example 1 @8 μg/ml): <0.031 µg/mL
MIC ATB combined with Example 1 @8 μg/ml ([2]; with Example 1 at 8 μg/ml): <0.031 µg/mL
MIC ATB combined with Example 7 @8 μgml ([2]; with Example 7 at 8 μg/ml): 32 µg/mL
MIC ATB combined with Example 9 @4 μg/ml ([2]; with Example 9 @4 μg/ml): 16 µg/mL
MIC ATB combined with Example 9 @4 μg/ml ([2]; with Example 9 at 4 μg/ml): 16 µg/mL
MIC ATB combined with Example 11 @8 μg/ml ([2]; with Example 11 at 8 μg/ml): 16 µg/mL
MIC ATB combined with Example 12 @8 μg/ml ([2]; with Example 12 at 8 μg/ml): 16 µg/mL
MIC ATB combined with Example 13 @8 μg/ml ([2]; with Example 13 at 8 μg/ml): 16 µg/mL
MIC ATB combined with Example 14 @8 μg/ml ([2]; with Example 14 at 8 μg/ml): 16 µg/mL
MIC ATB combined with Example 15 @4 μgml ([2]; with Example 15 at 4 μg/ml): 16 µg/mL
MIC ATB combined with Example 16 @4 μg/ml ([2]; with Example 16 at 4 μg/ml): 16 µg/mL
MIC ATB alone ([3]; antibiotic alone): 32 µg/mL
MIC ATB combined with Example 1 @8 μg/ml ([3]; with Example 1 @8 μg/ml): <0.031 µg/mL
MIC ATB combined with Example 1 @8 μg/ml ([3]; with Example 1 at 8 μg/ml): <0.031 µg/mL
MIC ATB combined with Example 7 @8 μgml ([3]; with Example 7 at 8 μg/ml): >32 µg/mL
MIC ATB combined with Example 9 @4 μg/ml ([3]; with Example 9 @4 μg/ml): 32 µg/mL
MIC ATB combined with Example 9 @4 μg/ml ([3]; with Example 9 at 4 μg/ml): 32 µg/mL
MIC ATB combined with Example 11 @8 μg/ml ([3]; with Example 11 at 8 μg/ml): 32 µg/mL
MIC ATB combined with Example 12 @8 μg/ml ([3]; with Example 12 at 8 μg/ml): 32 µg/mL
MIC ATB combined with Example 13 @8 μg/ml ([3]; with Example 13 at 8 μg/ml): 32 µg/mL
MIC ATB combined with Example 14 @8 μg/ml ([3]; with Example 14 at 8 μg/ml): 32 µg/mL
MIC ATB combined with Example 15 @4 μgml ([3]; with Example 15 at 4 μg/ml): 32 µg/mL
MIC ATB combined with Example 16 @4 μg/ml ([3]; with Example 16 at 4 μg/ml): 32 µg/mL
MIC ATB alone ([4]; antibiotic alone): 0.5 µg/mL
MIC ATB combined with Example 1 @8 μg/ml ([4]; with Example 1 @8 μg/ml): <0.031 µg/mL
MIC ATB combined with Example 1 @8 μg/ml ([4]; with Example 1 at 8 μg/ml): <0.031 µg/mL
MIC ATB combined with Example 7 @8 μgml ([4]; with Example 7 at 8 μg/ml): <0.031 µg/mL
MIC ATB combined with Example 9 @4 μg/ml ([4]; with Example 9 @4 μg/ml): <0.031 µg/mL
MIC ATB combined with Example 9 @4 μg/ml ([4]; with Example 9 at 4 μg/ml): <0.031 µg/mL
MIC ATB combined with Example 11 @8 μg/ml ([4]; with Example 11 at 8 μg/ml): <0.031 µg/mL
MIC ATB combined with Example 12 @8 μg/ml ([4]; with Example 12 at 8 μg/ml): <0.031 µg/mL
MIC ATB combined with Example 13 @8 μg/ml ([4]; with Example 13 at 8 μg/ml): <0.031 µg/mL
MIC ATB combined with Example 14 @8 μg/ml ([4]; with Example 14 at 8 μg/ml): <0.031 µg/mL
MIC ATB combined with Example 15 @4 μgml ([4]; with Example 15 at 4 μg/ml): <0.031 µg/mL
MIC ATB combined with Example 16 @4 μg/ml ([4]; with Example 16 at 4 μg/ml): <0.031 µg/mL
MIC ATB alone ([5]; antibiotic alone): 0.25 µg/mL
MIC ATB combined with Example 1 @8 μg/ml ([5]; with Example 1 @8 μg/ml): <0.031 µg/mL
MIC ATB combined with Example 1 @8 μg/ml ([5]; with Example 1 at 8 μg/ml): <0.031 µg/mL
MIC ATB combined with Example 7 @8 μgml ([5]; with Example 7 at 8 μg/ml): <0.031 µg/mL
MIC ATB combined with Example 9 @4 μg/ml ([5]; with Example 9 @4 μg/ml): <0.031 µg/mL
MIC ATB combined with Example 9 @4 μg/ml ([5]; with Example 9 at 4 μg/ml): <0.031 µg/mL
MIC ATB combined with Example 11 @8 μg/ml ([5]; with Example 11 at 8 μg/ml): <0.031 µg/mL
MIC ATB combined with Example 12 @8 μg/ml ([5]; with Example 12 at 8 μg/ml): <0.031 µg/mL
MIC ATB combined with Example 13 @8 μg/ml ([5]; with Example 13 at 8 μg/ml): <0.031 µg/mL
MIC ATB combined with Example 14 @8 μg/ml ([5]; with Example 14 at 8 μg/ml): <0.031 µg/mL
MIC ATB combined with Example 15 @4 μgml ([5]; with Example 15 at 4 μg/ml): <0.031 µg/mL
MIC ATB combined with Example 16 @4 μg/ml ([5]; with Example 16 at 4 μg/ml): <0.031 µg/mL
MIC ATB alone ([6]; antibiotic alone): 0.25 µg/mL
MIC ATB combined with Example 1 @8 μg/ml ([6]; with Example 1 @8 μg/ml): 0.125 µg/mL
MIC ATB combined with Example 1 @8 μg/ml ([6]; with Example 1 at 8 μg/ml): 0.125 µg/mL
MIC ATB combined with Example 7 @8 μgml ([6]; with Example 7 at 8 μg/ml): 0.25 µg/mL
MIC ATB combined with Example 9 @4 μg/ml ([6]; with Example 9 @4 μg/ml): <0.031 µg/mL
MIC ATB combined with Example 9 @4 μg/ml ([6]; with Example 9 at 4 μg/ml): <0.031 µg/mL
Structure (SMILES): CN(C)c1cc(NC(=O)CNC(C)(C)C)c(O)c2c1C[C@H]1C[C@H]3[C@H](N(C)C)C(O)=C(C(N)=O)C(=O)[C@@]3(O)C(O)=C1C2=O [TGC]
